Values joined by “and” are separate entries in the source; they are usually repeats but may differ in a detail not shown here. Equal entries are not always repeated. Marks after values point to notes of the source that are not given here.
What was measured:
[1] = test system: imiquimod-induced skin lesions; test: Imiquimod-induced psoriasis model in mice: clinical signs and dorsal skin histopathology; assay type: in vivo; set-up: key to Hyperkeratosis, protective effect / Epidermal serocellular crust, protective effect / Acanthosis, protective effect / Dermal inflammatory infiltrates, protective effect: the (+) sign represents the presence of a protective effect; a (−) sign represents the absence of protective effect
Excerpt: To test whether Compound I might ameliorate the signs of psoriasis, we topically administered Compound I to imiquimod-induced skin lesions in mice. The imiquimod mouse model of psoriasis-like skin inflammation is characterized by lesions that show augmented epidermal cell proliferation, abnormal keratinocyte differentiation, neutrophil accumulation in epidermal microabcesses, and neoangiogenesis.
For this study, thirty two 8-week old female Balbc/J mice were housed […] in positively ventilated polysulfonate cages with HEPA filtered air at a density of 4 mice per cage. The animal room was lighted entirely with artificial fluorescent lighting, with a controlled 12 h light/dark cycle (6 am to 6 pm light). The normal temperature and relative humidity ranges in the animal rooms were 22±4° C. and 50±15%, respectively. The animal rooms were set to have a minimum of 15 air exchanges per hour. Filtered tap water, acidified to a pH of 2.5 to 3.0, and standard rodent chow were provided ad libitum. After 1 week of acclimation mice were randomized into 4 groups (n=8/each) as shown below (Table 1).
1. IMQ induction: On day 0 all grouped mice received a topical dose of 62.5 mg of IMQ cream (5%) on the shaved back for 6 consecutive days. (Day 0 to Day 5)
3. Mice were scored for clinical parameters of disease based on degree of erythema, scaling and thickening independently on a scale of 0-4. 0=none; 1=slight; 2=moderate; 3=moderate to severe: 4=severe. These observations were recorded on day 0, 2, 4, 6, and 8. On the same days, back skin thickness was measured with calipers.
5. Mice were sacrificed on day 10 by CO2 asphyxiation.
6. A part of the back skin was harvested and fixed for histology. Slides were processed, stained with H&E for histology assessment.
Dorsal skin sections were evaluated histopathologically for evidence of key features of psoriasis, such as parakeratosis, hyperkeratosis (thickening of the stratum corneum), acanthosis (diffuse thickening of the stratum spinosum of the skin), epidermal serocellular crusts, epidermal microabscesses, basilar papillae, dermal inflammatory infiltrates and dilated tortuous capillaries (Table 2. Histopathological scoring system and definition used in the Imiquimod psoriasis model).

[2] = Body and spleen weight in imiquimod psoriasis model mice; conditions: 9 days topical treatment
Procedure: Mice were dosed with 0.1-0.2 ml of vehicle [90% (v/v) DMSO in pyrogen-free sterile water] or test compounds (0.1-0.2 ml of Compound I) or reference compound (˜0.05 mg clobetasol propionate, 0.5 mg/g cream) for 9 days (day 0-day 8) as indicated in Table 1. Compound I Doses 1 and 2 were 0.05% (w/v) and 0.1% (w/v) in 90% (v/v) DMSO in vehicle.
Body weights were measured daily.
Spleens were harvested, weighed and discarded.

LXR-alpha = target: T1, LXR-alpha (Homo sapiens, UniProt Q13133); test: LXR-alpha/RXR LRE-luciferase reporter in transfected HEK293T cells; assay type: cell-based; conditions: 10 uM, 18 h
T1 sequence (Q13133 1-447): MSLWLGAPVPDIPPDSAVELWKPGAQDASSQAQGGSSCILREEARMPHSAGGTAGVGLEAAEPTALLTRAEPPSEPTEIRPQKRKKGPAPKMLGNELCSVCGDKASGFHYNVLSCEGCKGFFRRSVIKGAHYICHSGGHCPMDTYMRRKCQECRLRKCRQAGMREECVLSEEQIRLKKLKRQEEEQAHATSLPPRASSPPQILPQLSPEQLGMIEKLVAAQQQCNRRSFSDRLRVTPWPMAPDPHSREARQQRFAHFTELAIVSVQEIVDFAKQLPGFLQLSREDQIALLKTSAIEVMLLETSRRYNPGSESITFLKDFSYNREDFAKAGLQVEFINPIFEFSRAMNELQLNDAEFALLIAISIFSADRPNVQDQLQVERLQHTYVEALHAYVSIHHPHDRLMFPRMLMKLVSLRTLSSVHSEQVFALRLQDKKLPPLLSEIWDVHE
T1 sequence (P19793 1-462 partner): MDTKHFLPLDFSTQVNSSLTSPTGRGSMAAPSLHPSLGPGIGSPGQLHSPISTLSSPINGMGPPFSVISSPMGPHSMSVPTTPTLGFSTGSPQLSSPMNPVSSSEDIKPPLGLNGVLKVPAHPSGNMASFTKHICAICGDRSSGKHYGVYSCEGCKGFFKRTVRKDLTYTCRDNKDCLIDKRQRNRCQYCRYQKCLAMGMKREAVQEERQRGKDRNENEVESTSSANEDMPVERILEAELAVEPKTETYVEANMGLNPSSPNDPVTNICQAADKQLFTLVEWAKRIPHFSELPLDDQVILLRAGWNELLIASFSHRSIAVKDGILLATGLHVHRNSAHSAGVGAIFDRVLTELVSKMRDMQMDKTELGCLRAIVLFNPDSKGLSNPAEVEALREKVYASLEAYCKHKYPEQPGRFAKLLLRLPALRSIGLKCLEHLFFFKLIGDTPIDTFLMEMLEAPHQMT
Excerpt: Since we had previously shown that the beneficial effects of the compounds of the invention are independent of glucocorticoid receptor (GR) activation, we set forth to investigate if they might exert their actions through activation of liver X receptors (LXR). For this purpose we used cultured cells transiently transfected with LXR-alpha, the retinoid X receptor (RXR) and a LXR response element-luciferase reporter (LRE-LUC). A. Human embryonic kidney cells (HEK293T; 5×10^5 cells/well) were cultured in DMEM medium supplemented with 10% (v/v) fetal bovine serum, 100 ug/ml of streptomycin, 100 IU/ml of penicillin and 2 mM glutamine. For the transient transfections, the cell cultures were added with plasmids carrying LXR-alpha (pLXR-alpha; 0.6 ug), the retinoid X receptor (pRXR; 0.2 ug), a LXR response element-luciferase reporter (pRE-LUC; 0.7 ug) and beta-galactosidase gene (pRSV-LacZ; 0.6 ug) as a transfection control, using Lipofectamine 2000 (Invitrogen). […] Compounds III to VI are […] analogs bearing a fluorine atom at C-6. To assess LXR-alpha activation, at the end of the incubation period luciferase activity was measured by use of a luciferase assay system (Promega). The results of three independent assays, carried out in duplicate for each condition, are reported.

[3] = Liver weight and gross morphology (hepatic steatosis) in C57BI mice after 5 days i.p. treatment; assay type: in vivo; conditions: male C57BI mice, T0901317 5 mg/kg i.p. daily for 5 days
Procedure: (§1) Administration of synthetic LXR agonists such as T0901317 induces a marked increment of liver lipogenesis that leads to hepatic steatosis and plasma hypertriglyceridemia.
(§2) Male C57BI mice received daily for 5 days intraperitoneal injections containing either 10 mg Compound I/kg, or 5 mg T0901317/kg, or vehicle [90% (v/v) DMSO in apyrogenic sterile water]. On the sixth day of the assay, the animals were fasted for 4 h before decapitation. Blood plasma was obtained for the determination of total cholesterol, HDL-cholesterol and triglyceride contents. The livers were resected, and their weights and colors used as gross markers of increased liver triglyceride contents.

[4] = Plasma total cholesterol, HDL-cholesterol and triglyceride in C57BI mice after 5 days i.p. treatment; assay type: in vivo; conditions: male C57BI mice; T0901317 5 mg/kg i.p. daily for 5 days
Procedure: as §1, §2

[5] = psoriatic mice, topical 0.05%, QD 9 days
[6] = topical 0.05%, summary of Table 3

Compound: CCC(=O)O[C@]1(C(=O)CCl)[C@@H](C)C[C@H]2[C@@H]3CCC4=CC(=O)C=C[C@]4(C)[C@@]3(F)[C@@H](O)C[C@@]21C [Clobetasol, clobetasol propionate, reference compound]
- acanthosis reduced versus 0.1% (w/v) Compound I-treated animals ([1]; Clobetasol-treated mice): 33%
- dermal inflammatory infiltrates versus 0.1% (w/v) Compound I-treated animals ([1]; Clobetasol-treated mice): absent
- back skin thickening (calipers) ([1]; after 9 days topical, Compound I 0.05% and 0.1% (w/v), clobetasol 0.05% cream): inhibited IMQ-induced skin thickening in the back
- global response score of dorsal skin, lower than in vehicle-treated psoriatic mice ([1]; clobetasol 0.05% topical, 9 days): ~42%
- skin erythema (clinical score 0-4, in words) ([1]; day 8, topical QD 9 days, both Compound I doses 0.05% and 0.1% (w/v), clobetasol 0.05% cream): absent
- scaling (clinical score 0-4, in words) ([1]; day 8, topical QD 9 days, both Compound I doses, clobetasol 0.05% cream): absent in ⅝ mice and slight in the rest of the animals
- Acanthosis (0-4), group mean score of dorsal skin [1, 5]: 1.4††
- Basliar papillae (0-4), group mean score of dorsal skin [1, 5]: 0.0
- Dermal inflammatory infiltrates (0-4), group mean score of dorsal skin [1, 5]: 0.0††
- Dilated tortuous capillaries (0-4), group mean score of dorsal skin [1, 5]: 0.0
- Epidermal micro-abscesses (0-4), group mean score of dorsal skin [1, 5]: 0.0
- Epidermal serocellular rust (0-4), group mean score of dorsal skin [1, 5]: 0.6
- Hyperkeratosis (0-4), group mean score of dorsal skin [1, 5]: 1.8
- Mean Global Score, dorsal skin [1, 5]: 3.8
- Parakeratosis (0-4), group mean score of dorsal skin [1, 5]: 0.0
- severity of microscopic alterations of back skin (histopathology) ([1]; topical 0.05%, QD 9 days): lowest severity
- Acanthosis, protective effect [1, 6]: +
- Dermal inflammatory infiltrates, protective effect [1, 6]: +
- Epidermal serocellular crust, protective effect [1, 6]: −
- Hyperkeratosis, protective effect [1, 6]: −
- reduction of body weight compared with vehicle-treated psoriatic mice [2]: 15%
- reduction of spleen weight compared with vehicle-treated psoriatic mice [2]: 62.6%

Compound: CC[C@@H](C(C)C)[C@H](O)[C@@H](O)[C@@H](C)[C@H]1CC[C@H]2[C@@H]3C[C@@H](F)C4=CC(=O)CC[C@]4(C)[C@H]3CC[C@]12C [Compound IV, (22S,23S)-6β-fluoro-22,23-dihydroxystigmast-4-en-3-one]
- induction of LXR-alpha driven gene expression compared with GW3965 (1 uM) (LXR-alpha): within the same range as that observed for GW3965

Compound: O=S(=O)(c1ccccc1)N(CC(F)(F)F)c1ccc(C(O)(C(F)(F)F)C(F)(F)F)cc1 [Compound T0901317]
- liver color versus DMSO-treated mice [3]: paler
- liver steatosis (liver weight and color) [3]: induces liver steatosis
- liver weight higher than in DMSO-treated mice ([3]; 5 mg/kg): 27% and ~23%
- HDL-cholesterol plasmatic content higher than in Compound I- or Vehicle-treated mice [4]: 50%
- total cholesterol plasmatic content higher than in Compound I- or Vehicle-treated mice [4]: 50%
- triglyceride plasmatic content higher than in Compound I- or Vehicle-treated mice [4]: > 2 times

Compound: CC[C@@H](C(C)C)[C@H](O)[C@@H](O)[C@@H](C)[C@H]1CC[C@H]2[C@@H]3C[C@@H](F)C4=CC(=O)C=C[C@]4(C)[C@H]3CC[C@]12C [Compound VI, (22S,23S)-6β-fluoro-22,23-dihydroxystigmasta-1,4-dien-3-one]
- induction of LXR-alpha driven gene expression compared with GW3965 (1 uM) (LXR-alpha): within the same range as that observed for GW3965

— patent US20190365784A1, “USE OF BRASSINOSTEROID ANALOGS FOR THE TREATMENT OF DERMAL DISORDERS BY SELECTIVELY MODULATING LIVER X RECEPTORS (LXR) AND DERMAL DISEASE TREATMENT BY BRASSINOSTEROID ANALOGS ACTING AS SELECTIVE LIVER X RECEPTOR (LXR) MODULATORS” (CONSEJO NACIONAL DE INVESTIGACIONES CIENTÍFICAS Y TÉCNICAS …, priority 2015, published 2019)
